PubChem BioAssay AID248 (DTP/NCI, 2004)
“And” between values parts separate entries of the source, which are not always exact repeats. Identical values can stand only once. Toxic doses and inconclusive results are not listed.

Tested on: L1210 leukemia ip in BDF1 mice, survival T/C
Assay: NCI In Vivo Anticancer Drug Screen. Data for tumor model L1210 Leukemia (intraperitoneal) in B6D2F1 (BDF1) mice
Settings: endpoint: mean survival time, higher = longer survival
Procedure, shortened: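 Antitumor effect is assessed in tumor-bearing animals. Survival in the compound arm is compared with a vehicle-dosed control arm and expressed as their quotient.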

[1] = dose: 100.0 mg/kg/injection, schedule: Q04DX002 (ip), vehicle: saline
[2] = dose: 100.0 mg/kg/injection, schedule: Q01DX009 (ip), vehicle: saline with Tween-80
[3] = dose: 200.0 mg/kg/injection, schedule: Q01DX009 (ip), vehicle: saline with Tween-80
[4] = dose: 400.0 mg/kg/injection, schedule: Q01DX009 (ip), vehicle: saline with Tween-80
[5] = dose: 100.0 mg/kg/injection, schedule: Q04DX003 (ip), vehicle: Klucel (hydroxypropylcellulose) (HPC)
[6] = dose: 200.0 mg/kg/injection, schedule: Q04DX003 (ip), vehicle: Klucel (hydroxypropylcellulose) (HPC)
[7] = dose: 400.0 mg/kg/injection, schedule: Q04DX003 (ip), vehicle: Klucel (hydroxypropylcellulose) (HPC)
[8] = dose: 50.0 mg/kg/injection, schedule: Q04DX003 (ip), vehicle: Klucel (hydroxypropylcellulose) (HPC)

CC(=O)OCC(C)(C)N
T/C [1]: 89 % of control
T/C (dose: 200.0 mg/kg/injection, schedule: Q04DX002 (ip), vehicle: saline): 110 % of control
T/C (dose: 400.0 mg/kg/injection, schedule: Q04DX002 (ip), vehicle: saline): 95 % of control

Cc1ccc2[nH]c(-c3ccccc3)c(-c3ccccc3)c2c1
T/C [2]: 95 % of control
T/C [3]: 103 % of control
T/C [4]: 95 % of control

Cc1ccc(S(=O)NOCc2ccccc2)cc1 (stereo not given)
T/C [5]: 95 % of control
T/C [6]: 105 % of control
T/C [7]: 100 % of control

O=C1COC(=O)CO1
T/C [8]: 104 % of control
T/C (dose: 100.0 mg/kg/injection, schedule: Q01DX009 (ip), vehicle: saline): 86 % of control
T/C [5]: 100 % of control
T/C (dose: 200.0 mg/kg/injection, schedule: Q01DX009 (ip), vehicle: saline): 86 % of control
T/C [6]: 96 % of control

CC#CC(=O)O
T/C (dose: 6.25 mg/kg/injection, schedule: Q01DX009 (ip), vehicle: saline): 106 % of control
T/C (dose: 12.5 mg/kg/injection, schedule: Q01DX009 (ip), vehicle: saline): 106 % of control
T/C (dose: 25.0 mg/kg/injection, schedule: Q01DX005 (ip), vehicle: saline): 104 % of control
T/C (dose: 25.0 mg/kg/injection, schedule: Q01DX009 (ip), vehicle: saline): 98 % of control and 100 % of control
T/C (dose: 25.0 mg/kg/injection, schedule: Q04DX002 (ip), vehicle: saline): 95 % of control
T/C (dose: 50.0 mg/kg/injection, schedule: Q01DX005 (ip), vehicle: saline): 97 % of control
T/C (dose: 50.0 mg/kg/injection, schedule: Q04DX002 (ip), vehicle: saline): 102 % of control
T/C (dose: 100.0 mg/kg/injection, schedule: Q01DX005 (ip), vehicle: saline): 93 % of control
T/C [1]: 104 % of control

Nc1nc2c(c(=O)[nH]1)N=C(CCNc1ccc(C(=O)O)cc1)CN2
T/C (dose: 100.0 mg/kg/injection, schedule: Q01DX001 (ip), vehicle: saline): 105 % of control
T/C (dose: 200.0 mg/kg/injection, schedule: Q01DX001 (ip), vehicle: saline): 109 % of control
T/C (dose: 400.0 mg/kg/injection, schedule: Q01DX001 (ip), vehicle: saline): 109 % of control

CCC(C)(OC(=O)c1ccc([N+](=O)[O-])cc1)C(C)C (stereo not given)
T/C (dose: 75.0 mg/kg/injection, schedule: Q04DX002 (ip), vehicle: saline with Tween-80): 95 % of control
T/C (dose: 150.0 mg/kg/injection, schedule: Q04DX002 (ip), vehicle: saline with Tween-80): 91 % of control

COC(=O)c1ccccc1NC(=O)Nc1ccc(SC)cc1
T/C (dose: 100.0 mg/kg/injection, schedule: Q01DX009 (ip), vehicle: Klucel (hydroxypropylcellulose) (HPC)): 89 % of control
T/C (dose: 200.0 mg/kg/injection, schedule: Q01DX009 (ip), vehicle: Klucel (hydroxypropylcellulose) (HPC)): 92 % of control
T/C (dose: 400.0 mg/kg/injection, schedule: Q01DX009 (ip), vehicle: Klucel (hydroxypropylcellulose) (HPC)): 95 % of control

O=C(O)c1ccccc1/C=C1/Nc2ccccc2C1=O
T/C (dose: 10.0 mg/kg/injection, schedule: Q01DX001 (ip), vehicle: acetone): 102 % of control
T/C (dose: 20.0 mg/kg/injection, schedule: Q01DX001 (ip), vehicle: acetone): 94 % of control

S=c1[nH]n2c(=S)[nH]nc2s1
T/C [5]: 101 % of control
T/C [6]: 103 % of control
T/C [7]: 93 % of control

CC(=O)NCCCCCCNC(C)=O
T/C (dose: 10.0 mg/kg/injection, schedule: Q01DX Z (ip), vehicle: saline): 100 % of control
T/C (dose: 30.0 mg/kg/injection, schedule: Q01DX Z (ip), vehicle: saline): 104 % of control
T/C (dose: 100.0 mg/kg/injection, schedule: Q01DX Z (ip), vehicle: saline): 100 % of control
T/C (dose: 300.0 mg/kg/injection, schedule: Q01DX Z (ip), vehicle: saline): 100 % of control

O=C(CC(C[N+](=O)[O-])c1ccccc1)c1ccccc1 (stereo not given)
T/C (dose: 100.0 mg/kg/injection, schedule: Q04DX002 (ip), vehicle: Klucel (hydroxypropylcellulose) (HPC)): 96 % of control
T/C (dose: 200.0 mg/kg/injection, schedule: Q04DX002 (ip), vehicle: Klucel (hydroxypropylcellulose) (HPC)): 100 % of control
T/C (dose: 400.0 mg/kg/injection, schedule: Q04DX002 (ip), vehicle: Klucel (hydroxypropylcellulose) (HPC)): 96 % of control

Nc1cncc(Br)c1NCCc1ccccc1
T/C (dose: 100.0 mg/kg/injection, schedule: Q01DX001 (ip), vehicle: carboxymethylcellulose (CMC)): 103 % of control
T/C (dose: 200.0 mg/kg/injection, schedule: Q01DX001 (ip), vehicle: carboxymethylcellulose (CMC)): 97 % of control
T/C (dose: 400.0 mg/kg/injection, schedule: Q01DX001 (ip), vehicle: carboxymethylcellulose (CMC)): 101 % of control

Oc1ccc(C(c2ccc(O)cc2)(C(F)(F)F)C(F)(F)F)cc1
T/C [2]: 105 % of control
T/C (dose: 100.0 mg/kg/injection, schedule: Q04DX003 (ip), vehicle: alcohol): 101 % of control
T/C [3]: 97 % of control
T/C (dose: 200.0 mg/kg/injection, schedule: Q04DX003 (ip), vehicle: alcohol): 95 % of control
T/C [4]: 109 % of control
T/C (dose: 400.0 mg/kg/injection, schedule: Q04DX003 (ip), vehicle: alcohol): 102 % of control

CS(=O)(=O)c1nc2ccccc2s1
T/C (dose: 25.0 mg/kg/injection, schedule: Q01DX009 (ip), vehicle: saline with Tween-80): 97 % of control
T/C (dose: 25.0 mg/kg/injection, schedule: Q04DX003 (ip), vehicle: Klucel (hydroxypropylcellulose) (HPC)): 101 % of control
T/C (dose: 50.0 mg/kg/injection, schedule: Q01DX009 (ip), vehicle: saline with Tween-80): 92 % of control
T/C [8]: 106 % of control
T/C [2]: 107 % of control
T/C [5]: 106 % of control

CSc1cc(C(=O)Nc2ccc(C3=NCCN3)cc2)cc(C(=O)Nc2ccc(C3=NCCN3)cc2)c1
T/C (dose: 2.75 mg/kg/injection, schedule: Q01DX Z (ip), vehicle: carboxymethylcellulose (CMC)): 110 % of control
T/C (dose: 5.5 mg/kg/injection, schedule: Q01DX Z (ip), vehicle: carboxymethylcellulose (CMC)): 102 % of control
T/C (dose: 11.0 mg/kg/injection, schedule: Q01DX Z (ip), vehicle: carboxymethylcellulose (CMC)): 96 % of control
T/C (dose: 22.0 mg/kg/injection, schedule: Q01DX Z (ip), vehicle: carboxymethylcellulose (CMC)): 119 % of control
T/C (dose: 31.0 mg/kg/injection, schedule: Q01DX Z (ip), vehicle: carboxymethylcellulose (CMC)): 225 % of control
T/C (dose: 45.0 mg/kg/injection, schedule: Q01DX Z (ip), vehicle: carboxymethylcellulose (CMC)): 174 % of control
T/C (dose: 62.0 mg/kg/injection, schedule: Q01DX Z (ip), vehicle: carboxymethylcellulose (CMC)): 242 % of control
T/C (dose: 90.0 mg/kg/injection, schedule: Q01DX Z (ip), vehicle: carboxymethylcellulose (CMC)): 168 % of control
T/C (dose: 125.0 mg/kg/injection, schedule: Q01DX Z (ip), vehicle: carboxymethylcellulose (CMC)): 165 % of control
T/C (dose: 180.0 mg/kg/injection, schedule: Q01DX Z (ip), vehicle: carboxymethylcellulose (CMC)): 256 % of control
T/C (dose: 250.0 mg/kg/injection, schedule: Q01DX Z (ip), vehicle: carboxymethylcellulose (CMC)): 157 % of control
T/C (dose: 360.0 mg/kg/injection, schedule: Q01DX Z (ip), vehicle: carboxymethylcellulose (CMC)): 100 % of control

COc1ccc(CC2C(=O)NC(C)C(=O)N(C)C3C(=O)N(C)C(Cc4ccc(O)c(c4)Oc4ccc(cc4)C3O)C(=O)NC(C)C(=O)NC(C)C(=O)N2C)cc1 (stereo not given) (tested in a mixture with another compound)
T/C (dose: 0.25 mg/kg/injection, schedule: Q01DX009 (ip), vehicle: saline): 112 % of control
T/C (dose: 0.5 mg/kg/injection, schedule: Q01DX009 (ip), vehicle: carboxymethylcellulose (CMC)): 114 % of control
T/C (dose: 0.5 mg/kg/injection, schedule: Q01DX009 (ip), vehicle: saline): 122 % of control
T/C (dose: 1.0 mg/kg/injection, schedule: Q01DX009 (ip), vehicle: carboxymethylcellulose (CMC)): 115 % of control
T/C (dose: 1.0 mg/kg/injection, schedule: Q01DX009 (ip), vehicle: saline): 120 % of control
T/C (dose: 2.0 mg/kg/injection, schedule: Q01DX009 (ip), vehicle: carboxymethylcellulose (CMC)): 117 % of control
T/C (dose: 2.0 mg/kg/injection, schedule: Q01DX009 (ip), vehicle: saline): 117 % of control

CC(C)SC(=S)Nc1ccc(Cl)c(Cl)c1
T/C (dose: 30.0 mg/kg/injection, schedule: Q04DX003 (ip), vehicle: saline): 95 % of control
T/C (dose: 60.0 mg/kg/injection, schedule: Q04DX003 (ip), vehicle: saline): 98 % of control
T/C (dose: 120.0 mg/kg/injection, schedule: Q04DX003 (ip), vehicle: saline): 95 % of control
